Results on 3 compounds are retold here after publication PMC6356164, “Identification of a novel lactose oxidase in Myrmecridium flexuosum NUK‐21” (FEBS Open Bio, 2019).

This assay deals with T1, lactose oxidase (LOD).
T1 construct: native enzyme purified from wheat bran solid culture; 2 Zn per mole, no FAD or heme
The assay is described as follows: peroxidase-4-aminoantipyrine assay, Hanes-Woolf plot. The class given is biochemical, Myrmecridium flexuosum. Conditions: 50 mM Tris-HCl pH 7.8, 30 °C, O2 as acceptor. From the text: peroxidase-4-aminoantipyrine assay, Hanes-Woolf plot on lactose oxidase (LOD)

Setting [1] is: substrate inhibition above 1 mM.

As to `OC[C@H]1O[C@@H](O[C@H]2[C@H](O)[C@@H](O)C(O)O[C@@H]2CO)[C@H](O)[C@@H](O)[C@@H]1O` (stereo partly drawn) [Cellobiose], the Michaelis constant (Km) under setting [1] was determined as 63 µM.

With `OC[C@H]1O[C@@H](O[C@H]2[C@H](O)[C@@H](O)C(O)O[C@@H]2CO)[C@H](O)[C@@H](O)[C@H]1O` (stereo partly drawn) [Lactose], the Km under setting [1] is 76 µM.

Turning to `OC[C@H]1O[C@H](O[C@H]2[C@H](O)[C@@H](O)C(O)O[C@@H]2CO)[C@H](O)[C@@H](O)[C@@H]1O` (stereo partly drawn) [Maltose], the Michaelis-Menten constant (Km) is 22000 µM.

What is called Km is the concentration of substrate that gives half-maximal velocity.
